B1: +2GFP-C6.5: fusion of +2GFP and C6.5; a or b variant not stated (protein)
scFv: QVQLLQSGAELKKPGESLKISCKGSGYSFTSYWIAWVRQMPGKGLEYMGLIYPGDSDTKYSPSFQGQVTISVDKSVSTAYLQWSSLKPSDSAVYFCARHDVGYCSSSNCAKWPEYFQHWGQGTLVTVSSGGGGSGGGGSGGGGSQSVLTQPPSVSAAPGQKVTISCSGSSSNIGNNYVSWYQQLPGTAPKLLIYGHTNRPAGVPDRFSGSKSGTSASLAISGFRSEDEADYYCAAWDDSLSGWVFGGGTKLTVLGGHGHHHHHH
modifications: left off: large carriers; small tags and cut ends

How the values were obtained:
Format in all cases: cell-based
[1] = system: MDA-MB-468 (Her2^−) cells; assay: Time course of cellular uptake in mixed cell populations, flow cytometry (Example 6); details: Her2− (MDA-MB-468), 0.1 μM, untreated 4,134
Description: (§1) The media were replaced with serum free media containing 0.1 μM of protein listed below and incubated for 10 minutes, 30 minutes or 4 hours. Cells were washed 3×PBS, trypsinized, stained with Her2 Antibody-APC for 0.5 hours, washed with PBS and then analyzed by flow cytometry with detection of GFP.

[2] = system: AU565 (Her2^+) cells; assay: as above; details: 0.1 μM, untreated 6,081
Description: as §1

[3] = system: AU565 (Her2^+) cells; assay: Internalization of GFP proteins by flow cytometry (Example 4); details: 1 μM protein, 2 hours, serum free media, untreated cells 5,713
[4] = system: MDA-MB-468 (Her2^−) cells; assay: as above; details: 1 μM protein, 2 hours, serum free media, untreated cells 4,064
Description: MDA-MB-468 cells express an insignificant level of Her2 compared to unstained background and are considered Her2 negative (referred to as Her2), whereas AU565 cells express a high level of Her2 (referred to as Her2^+).
The media were replaced with serum free media containing 1 μM of a protein listed below, and incubated for 2 hours. Cells were washed 3×PBS, trypsinized, fixed with 4% PFA, washed with PBS and then analyzed by flow cytometry with detection of GFP.
Results: Flow cytometry analysis is indicative of the amount of protein internalized into the cells. FIGS. 9A and 9B show the flow cytometry data obtained for different tested samples at various conditions. The median fluorescence values obtained from the flow cytometry peak minus the median fluorescence values of untreated cells (background fluorescence) are shown in FIGS. 10A and 10B. See also Table 7. The first column indicates identifies the GFP-component of the construct used for the particular sample treatment. The second and third columns represents fluorescence in MDA-MB-468 cells following treatment with each of the GFP proteins alone (second column; examples of use of CPMs alone) or with each of the GFP-C6.5 fusion proteins (third column; examples of fusion proteins comprising a target-binding region and a CPM region). The fourth and fifth column fluorescence in AU565 cells following treatment with each of the GFP proteins alone (fourth column; examples of use of CPMs alone) or with each of the GFP-C6.5 fusion proteins (fifth column; examples of fusion proteins comprising a target-binding region and a CPM region).

[5] = system: MDA-MB-468 (Her2^−) cells; assay: Cellular uptake in mixed cell populations, flow cytometry with Her2 Ab-APC gating (Example 5); details: 2 h, mixed cell population; for Median Fluorescence Values, first set: MDA-MB-468 cells (Her2−), untreated 4,303; for Median Fluorescence Values, second set: Her2− (MDA-MB-468), untreated 4,776
Description: (§2) The media were replaced with serum free media containing indicated concentrations of protein listed below and incubated for 2 h. Cells were washed 3×PBS, trypsinized, fixed with 4% PFA, stained with Her2 Ab-APC for 0.5 hour, washed with PBS and then analyzed by flow cytometry with detection of GFP.
(§3) The tested proteins of the first and second sets of experiments were applied to the mixed cell population for two hours.
(§4) The above data were also plotted in FIGS. 13A-13H to show the median fluorescence value minus background fluorescence of untreated cells (background adjusted fluorescence) (Y-axis) as a function of concentration (X-axis) for each of the tested proteins in this Example. Cellular uptake of the proteins was measured by GFP fluorescence. Her2 expression level was measured by using a Her2 antibody conjugated with allophycocyanin (APC). Gating was applied to the flow cytometry data to identify Her2^low versus Her2^high populations. […] The Her2^− profiles (diamond) are indicative of the profile of charged GFP alone. The Her2^− profiles (square) are indicative of the profile of the charged GFP in combination with the target-binding region—C6.5 scFv. The data of sfGFP-C6.5 on the Her2^high cells reflects the profile of the target-binding region (C6.5) by itself.

[6] = system: AU565 (Her2^+) cells; assay: as above; details: 2 h, mixed cell population; for Median Fluorescence Values, first set: AU565 cells (Her2+), untreated 6,875; for Median Fluorescence Values, second set: Her2+ (AU565), untreated 11,162
Description: as §2, §3, §4

[7] = system: SKOV-3 cells (Her2^+); assay: Cellular uptake of GFP proteins by fluorescence microscopy; details: 1 μM of proteins, 1 hour
Description: These images were taken to assess cellular uptake of these GFP-containing proteins by fluorescence microscopy. The images shown are an overlay of phase contrast and GFP fluorescence images.
In addition, SKOV-3 cells (Her2) were treated with 1 μM of proteins for 1 hour, and then images were taken to assess cellular uptake of GFP proteins by fluorescence microscopy (FIG. 11A).

Row | Molecule | Internalization over time (GFP fluorescence, flow cytometry) ([1]; 10 min) | Internalization over time (GFP fluorescence, flow cytometry) ([1]; 30 min) | Internalization over time (GFP fluorescence, flow cytometry) ([1]; 4 h) | Internalization over time (GFP fluorescence, flow cytometry) ([2]; 10 min) | Internalization over time (GFP fluorescence, flow cytometry) ([2]; 30 min) | Internalization over time (GFP fluorescence, flow cytometry) ([2]; 4 h) | Median fluorescence (GFP, flow cytometry) [3] | Median fluorescence (GFP, flow cytometry) [4] | Median Fluorescence Values, first set ([5]; 0.03 uM) | Median Fluorescence Values, first set ([5]; 0.1 uM) | Median Fluorescence Values, first set ([5]; 0.3 uM) | Median Fluorescence Values, first set ([5]; 1 uM) | Median Fluorescence Values, first set ([6]; 0.03 uM) | Median Fluorescence Values, first set ([6]; 0.1 uM) | Median Fluorescence Values, first set ([6]; 0.3 uM) | Median Fluorescence Values, first set ([6]; 1 uM) | binding and cellular uptake by fluorescence microscopy [7] | Median Fluorescence Values, second set ([5]; 0.1 uM) | Median Fluorescence Values, second set ([5]; 0.3 uM) | further results
1 | +15GFP-C6.5: fusion of +15GFP (CPM) and anti-Her2 scFv C6.5 via (S4G)6 spacer; SEQ ID NO: 14 | 10,665 | 22,262 | 144,923 | 18,606 | 35,981 | 148,261 | 413,838 | 313,629 | 13,012 | 36,343 | 76,116 | 155,734 | 37,663 | 74,673 | 128,374 | 180,065 | – | – | – | –
2 | C6.5-+15GFP: fusion with C6.5 N-terminal to +15GFP; SEQ ID NO: 16 | 13,517 | 17,194 | 96,599 | 37,044 | 61,007 | 184,844 | 2,170,916 | 767,627 | 13,355 | 36,070 | 82,571 | 306,260 | 75,821 | 162,337 | 305,944 | 822,351 | internalized efficiently in the cells | – | – | –
3 | sfGFP-C6.5: control fusion of sfGFP and anti-Her2 scFv C6.5, not positively charged; SEQ ID NO: 13 [reference compound] | 4,081 | 3,986 | 4,704 | – | – | – | – | 5,632 | – | – | – | – | – | – | – | – | – | 4,824 | 4,947 | Median Fluorescence Values, second set ([5]; 0.03 uM): 4,460
4 | sfGFP: superfolder GFP with His6 tag, not positively charged; SEQ ID NO: 10 [reference compound] | 3,887 | 4,025 | 4,067 | 5,952 | 6,024 | 5,924 | 5,896 | 5,115 | – | – | – | – | – | – | – | – | – | 4,519 | 5,245 | Median Fluorescence Values, second set ([6]; 0.1 uM): 10,937; Median Fluorescence Values, second set ([6]; 0.3 uM): 12,131
5 | B1 | – | – | – | – | – | – | – | – | – | – | – | – | – | – | – | – | bound to SKOV-3 cells through Her2 but did not internalize in the cells | – | – | –

Reference: US20160031985A1, “CHARGE-ENGINEERED ANTIBODIES OR COMPOSITIONS OF PENETRATION-ENHANCED TARGETING PROTEINS AND METHODS OF USE” (PERMEON BIOLOGICS, INC., priority 2013, published 2016)
